Legend:
[1] = biological target: T1, GST-tagged recombinant human full-length TTK protein kinase (Homo sapiens, UniProt P33981); assay: TTK mobility shift microfluidics assay, IC50 determination (3 nM TTK); assay type: biochemical
T1 construct: GST-tagged recombinant human full-length TTK protein kinase; purchased Invitrogen (Life Technologies Ltd., Paisley, U.K.)
T1 sequence (P33981 1-857): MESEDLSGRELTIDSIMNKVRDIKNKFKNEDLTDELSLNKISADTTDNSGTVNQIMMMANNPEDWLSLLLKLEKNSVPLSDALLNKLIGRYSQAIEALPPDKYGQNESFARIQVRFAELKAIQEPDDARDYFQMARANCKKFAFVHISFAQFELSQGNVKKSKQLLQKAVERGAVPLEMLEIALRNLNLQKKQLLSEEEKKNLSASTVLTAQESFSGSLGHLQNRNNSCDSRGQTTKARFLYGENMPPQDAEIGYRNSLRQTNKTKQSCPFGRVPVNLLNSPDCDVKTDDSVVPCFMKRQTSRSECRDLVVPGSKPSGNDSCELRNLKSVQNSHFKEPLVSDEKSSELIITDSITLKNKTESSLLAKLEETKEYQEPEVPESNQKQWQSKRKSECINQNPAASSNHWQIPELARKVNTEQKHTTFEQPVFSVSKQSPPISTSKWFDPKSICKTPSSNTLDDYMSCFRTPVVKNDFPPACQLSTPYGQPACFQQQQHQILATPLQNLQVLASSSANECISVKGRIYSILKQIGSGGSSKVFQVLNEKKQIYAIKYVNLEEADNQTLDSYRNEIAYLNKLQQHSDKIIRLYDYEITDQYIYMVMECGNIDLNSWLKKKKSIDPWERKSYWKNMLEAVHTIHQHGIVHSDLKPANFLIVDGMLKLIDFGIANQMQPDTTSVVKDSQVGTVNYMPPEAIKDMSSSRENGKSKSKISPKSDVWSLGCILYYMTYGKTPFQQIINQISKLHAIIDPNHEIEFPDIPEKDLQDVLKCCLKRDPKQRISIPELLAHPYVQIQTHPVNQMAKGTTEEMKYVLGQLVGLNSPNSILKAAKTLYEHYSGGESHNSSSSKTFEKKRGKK

[2] = biological target: T2, TTK kinase domain (residues 519–808) (Homo sapiens, UniProt P33981); assay: Soaking of apo TTK kinase domain crystals with inhibitor, X-ray crystallography; assay type: binding; details: crystals soaked with 10–50 mM compound for 24 h
T2 construct: TTK kinase domain (residues 519–808); inferred from Ni-NTA purification with imidazole elution; made in house; host or cells: E. coli BL21 AI
T2 sequence (P33981 519-808): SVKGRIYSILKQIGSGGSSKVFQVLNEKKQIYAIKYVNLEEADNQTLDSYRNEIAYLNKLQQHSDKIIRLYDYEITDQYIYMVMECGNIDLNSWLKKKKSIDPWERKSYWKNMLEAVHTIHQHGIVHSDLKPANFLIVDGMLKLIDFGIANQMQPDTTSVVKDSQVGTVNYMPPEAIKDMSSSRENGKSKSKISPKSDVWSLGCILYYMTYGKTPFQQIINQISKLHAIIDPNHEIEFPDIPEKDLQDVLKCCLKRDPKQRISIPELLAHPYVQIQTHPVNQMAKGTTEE
Excerpt: In recognition of the desirability of protein–ligand crystal structures to educate the efficient follow-up of fragment-like hit matter and our wish to determine the mode of binding of hits identified with the scaffold-focused virtual screen, we sought co-crystal structures of confirmed hits with TTK. To this end, apo crystals of TTK kinase domain were soaked in buffer solution containing the respective inhibitor (2–9). X-ray data were collected for all crystals, and the structures were solved using molecular replacement. We successfully obtained co-crystal structures of TTK with fragment-like hit compounds 3, 4, 5, and 7. […] A summary of crystallographic analysis is presented in Table 4, and the binding modes of compounds 3, 4, 5, and 7 are illustrated in Figure 7 with Fo–Fc electron density omit maps surrounding the ligand shown in green wire-mesh contoured at 3σ. In all four structures, the activation loop of TTK is disordered, possibly due to the presence of a PEG molecule bound to Lys553, a residue which would usually coordinate with Glu571 to help stabilize the activation loop (Lys553 is not shown in Figure 7 for clarity).
TTK was purified and crystallized as described previously.[26] Plasmids for expression of TTK were received from Stefan Knapp, Structural Genomics Consortium, Oxford, U.K. TTK kinase domain (residues 519–808) was expressed in E. coli BL21 AI competent cells (Invitrogen, Life Technologies Ltd., Paisley, U.K.). Cells were cultured in LB media containing kanamycin selection antibiotic and induced with 0.5 mM IPTG and 1g/L L-arabinose at an OD280 of 0.7. Cells were then incubated overnight at 18 °C with shaking at 225 rpm. Cells were harvested and resuspended in lysis buffer containing 50 mM HEPES pH 7.5, 500 mM NaCl, 10 mM imidazole, 5% (v/v) glycerol, lysozyme, and 1 Roche EDTA free complete protease inhibitor cocktail tablet (Roche, Basel, Switzerland) per 3 L of buffer. TTK was purified using Ni–NTA nickel affinity resin and washed in buffer containing 30 mM imidazole. TTK was then eluted from the resin with 250 mM imidazole. Eluate was concentrated using a Vivaspin concentrator with a 30 kDa molecular weight cutoff (GE Healthcare, Chalfont St. Giles, U.K.) and further purified on gel filtration column Superdex 200 16/60 (GE Healthcare, Chalfont St. Giles, U.K.) equilibrated in buffer containing 10 mM HEPES pH 7.5, 150 mM NaCl, 5 mM DTT, and 5 mM EDTA. The sample was concentrated to a final concentration of 8.9 mg/mL, snap frozen on dry ice, and stored at −80 °C until required.
Purified TTK was crystallized at 18 °C using the sitting drop vapor diffusion method with drops composed of 2 μL protein (8.9 mg/mL) and 2 μL reservoir solution placed over 200 μL reservoir solution of H2O/PEG300 (30–45% (v/v)) in 48 well plates. […]

[3] = biological target: T1, GST-tagged recombinant human full-length TTK protein kinase; assay: TTK mobility shift microfluidics assay, single-concentration percent inhibition screen; assay type: biochemical; details: 12.5 nM TTK, 10 μM ATP, mean of duplicate ± SD
Protocol: The TTK kinase activity was measured in a mobility shift microfluidics assay with the Caliper LabChip EZReader II (Caliper Life Sciences, Hopkinton, MA, U.S.A.). For the initial percent inhibition compound screen, all compounds were tested at 40 μM, and fragment-like compounds (MW < 300 Da) were also tested at 400 μM. A 2.14 μM stock of GST-tagged recombinant human full-length TTK protein kinase from Invitrogen (Invitrogen, Life Technologies Ltd., Paisley, U.K.) and custom synthesized peptide from Pepceuticals (Pepceuticals Ltd., Enderby, U.K.) with sequence 5-FAM-[…]-amide were used. […] For every 10 mL of stock buffer, one Roche EDTA free complete mini-protease inhibitor cocktail tablet (Roche, Basel, Switzerland) was added. TTK was used at a final concentration of 12.5 nM. The assay plate was sealed and incubated at room temperature for 60 min. The assay was stopped by addition of stop buffer which contained 100 mM HEPES (pH 7.3), 20 mM EDTA, and 0.05% (v/v) Brij-35. The assay plate was then analyzed using the EZReader II. Z′ for compounds at 40 μM was 0.48, and Z′ for compounds at 400 μM was 0.61.

Cc1ccc2[nH]c3c(N4CCCCC4)ncnc3c2c1 [Compound 9]
IC50 ([1]; 10% DMSO (asterisk), 3 nM TTK, 10 μM ATP, duplicate on the same plate): 246 µM | LE (ligand efficiency) ([1]; from TTK IC50): 0.25 | binding in ATP binding site of soaked TTK crystals (electron density) [2]: not bound | inhibition at 40 µM ([3]; compound at 40 μM, 1% DMSO): 68 ± 1.41% | inhibition at 400 µM ([3]; compound at 400 μM (fragment-like, MW < 300 Da)): 55.5 ± 2.12%

From paper PMC3665241, “Scaffold-Focused Virtual Screening: Prospective Application to the Discovery of TTK Inhibitors” (Journal of Chemical Information and Modeling, 2013)
